Assay results from article doi:10.1101/2024.08.19.608619, “Discovery of potent SARS-CoV-2 nsp3 macrodomain inhibitors uncovers lack of translation to cellular antiviral response” (bioRxiv, 2024).

Key:
[1] = molecular target: HiBiT-tagged nsp3-mac1 in HEK293 cells (Severe acute respiratory syndrome coronavirus 2, UniProt P0DTD1); assay: HiBiT Cellular Thermal Shift Assay / isothermal dose response thermal shift assay (ITDRF CETSA); assay type: cell-based, SARS-CoV-2; conditions: fixed temperature 50.6°C
Experimental: A PCR product encoding SARS Cov-2 macrodomain residues 2 to 176 was cloned into the XhoI and BamHI restriction sites of the pBIT3.1-N vector (Promega) which has an N-terminal 11 amino acid HiBiT tag.
A PCR product encoding SARS Cov-2 macrodomain residues 1 to 176 was cloned into the HindIII and XhoI restriction sites of the pBIT3.1-C vector(Promega) which has an C-terminal 11 amino acid HiBiT tag.
Both constructs were evaluated for CETSA experiments and found to give similar results. For the results described the CHIBIT tag was used.
HiBiT Cellular Thermal Shift Assay (HiBiT-CETSA). To assess the engagement of nsp3-mac1 in intact cells, a HiBiT Cellular Thermal Shift Assay was conducted as described by Ramachandran et al. ([23]). The Nano-Glo HiBiT lytic detection system (Promega) was used according to the manufacturer’s instructions. Briefly, HEK293 cells were reverse-transfected with HiBiT-tagged nsp3-mac1 at a concentration of 400,000 cells/mL using the FuGENE transfection reagent (Promega). Following a 24-hour incubation period, the cells were trypsinized and resuspended in assay medium at the same concentration.
For CETSA, the cells were divided into two groups: one treated with 30 μM of the compounds and the other with DMSO as a control. […] The luminescence signals were measured using a PHERAstar FSX and analyzed with GraphPad Prism software (v.9 or v.10).

kinase panel = assay: Eurofins kinase panel; assay type: biochemical; conditions: test compound 10 uM
[2] = iPSC pneumocytes cytotoxicity; assay type: cell-based; conditions: protocol iPSC pneumocytes cytotoxicity
Excerpt: Supplement media-1.zip/Cytotoxicity.csv, table | column: cc10; cc50; perc_min_measured; perc_max_measured

CYP1A2 = CYP1A2 (Homo sapiens, UniProt P05177); assay: CYP inhibition; assay type: in vitro ADME; conditions: human; isoform 1A2; In vitro CYP inhibition pooled
Chain of CYP1A2 (P05177 2-516): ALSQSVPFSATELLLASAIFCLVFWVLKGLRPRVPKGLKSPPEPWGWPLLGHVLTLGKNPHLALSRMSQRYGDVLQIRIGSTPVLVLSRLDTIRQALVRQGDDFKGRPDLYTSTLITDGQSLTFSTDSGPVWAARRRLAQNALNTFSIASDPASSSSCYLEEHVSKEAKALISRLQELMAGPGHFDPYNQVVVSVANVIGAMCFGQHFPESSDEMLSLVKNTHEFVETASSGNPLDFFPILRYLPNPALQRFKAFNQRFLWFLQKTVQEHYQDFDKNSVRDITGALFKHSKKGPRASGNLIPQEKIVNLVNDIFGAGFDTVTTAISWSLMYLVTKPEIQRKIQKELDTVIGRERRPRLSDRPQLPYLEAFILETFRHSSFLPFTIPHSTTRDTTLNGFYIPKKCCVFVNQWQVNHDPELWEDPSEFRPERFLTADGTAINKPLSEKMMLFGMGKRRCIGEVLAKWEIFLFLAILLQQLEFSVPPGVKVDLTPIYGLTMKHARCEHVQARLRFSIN
Excerpt: (§1) Supplement media-1.zip/CYP_Inhibition.csv, table | column: ic50; potency

CYP2C19 = CYP2C19 (Homo sapiens, UniProt P33261); assay: CYP inhibition; assay type: in vitro ADME; conditions: human; isoform 2C19; In vitro CYP inhibition pooled
Chain of CYP2C19 (P33261 whole entry, canonical isoform): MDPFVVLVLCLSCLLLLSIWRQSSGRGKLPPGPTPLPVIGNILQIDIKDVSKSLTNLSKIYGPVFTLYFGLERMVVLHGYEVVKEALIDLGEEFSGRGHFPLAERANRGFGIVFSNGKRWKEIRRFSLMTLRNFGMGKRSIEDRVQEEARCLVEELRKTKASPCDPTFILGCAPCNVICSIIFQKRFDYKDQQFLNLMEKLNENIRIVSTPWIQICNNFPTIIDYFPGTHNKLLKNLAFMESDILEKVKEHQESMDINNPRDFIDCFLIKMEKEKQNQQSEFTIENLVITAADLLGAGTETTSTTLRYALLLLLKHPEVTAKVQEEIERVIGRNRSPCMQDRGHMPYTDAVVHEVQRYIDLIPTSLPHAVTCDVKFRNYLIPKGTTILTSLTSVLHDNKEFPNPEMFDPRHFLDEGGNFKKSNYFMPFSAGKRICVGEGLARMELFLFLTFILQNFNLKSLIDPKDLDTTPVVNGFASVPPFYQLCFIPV
Excerpt: as §1

CYP2C9 = CYP2C9 (Homo sapiens, UniProt P11712); assay: CYP inhibition; assay type: in vitro ADME; conditions: human; isoform 2C9; In vitro CYP inhibition pooled
Chain of CYP2C9 (P11712 whole entry, canonical isoform): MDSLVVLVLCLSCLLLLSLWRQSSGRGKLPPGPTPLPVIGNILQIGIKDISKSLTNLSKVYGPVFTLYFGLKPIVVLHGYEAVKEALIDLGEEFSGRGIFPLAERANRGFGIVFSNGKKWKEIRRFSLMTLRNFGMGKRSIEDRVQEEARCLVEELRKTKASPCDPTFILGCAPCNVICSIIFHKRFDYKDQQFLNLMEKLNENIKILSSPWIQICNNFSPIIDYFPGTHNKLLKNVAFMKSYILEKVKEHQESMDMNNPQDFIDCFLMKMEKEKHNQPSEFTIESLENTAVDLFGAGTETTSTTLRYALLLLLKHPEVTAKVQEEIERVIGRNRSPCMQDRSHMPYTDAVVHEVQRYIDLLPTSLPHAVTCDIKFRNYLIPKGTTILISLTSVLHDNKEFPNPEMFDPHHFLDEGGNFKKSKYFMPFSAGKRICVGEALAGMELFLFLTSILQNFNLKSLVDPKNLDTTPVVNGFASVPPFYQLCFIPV
Excerpt: as §1

CYP2D6 = CYP2D6 (Homo sapiens, UniProt P10635); assay: CYP inhibition; assay type: in vitro ADME; conditions: human; isoform 2D6; In vitro CYP inhibition pooled
Chain of CYP2D6 (P10635 whole entry, canonical isoform): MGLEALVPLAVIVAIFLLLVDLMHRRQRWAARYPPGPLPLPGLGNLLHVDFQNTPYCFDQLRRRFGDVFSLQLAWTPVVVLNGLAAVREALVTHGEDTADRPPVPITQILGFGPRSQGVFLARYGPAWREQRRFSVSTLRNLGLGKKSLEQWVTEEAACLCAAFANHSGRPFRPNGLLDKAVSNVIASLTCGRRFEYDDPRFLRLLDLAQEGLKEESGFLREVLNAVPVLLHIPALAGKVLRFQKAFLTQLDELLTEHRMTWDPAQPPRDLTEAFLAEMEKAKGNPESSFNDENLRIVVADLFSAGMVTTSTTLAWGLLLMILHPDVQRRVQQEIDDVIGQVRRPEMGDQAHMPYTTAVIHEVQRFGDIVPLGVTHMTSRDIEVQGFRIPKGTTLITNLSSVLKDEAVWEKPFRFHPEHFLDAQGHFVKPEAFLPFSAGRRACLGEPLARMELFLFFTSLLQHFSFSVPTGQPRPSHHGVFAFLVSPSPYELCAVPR
Excerpt: as §1

CYP3A4 = CYP3A4 (Homo sapiens, UniProt P08684); assay: CYP inhibition; assay type: in vitro ADME; conditions: human; isoform 3A4; In vitro CYP inhibition pooled
Chain of CYP3A4 (P08684 2-503): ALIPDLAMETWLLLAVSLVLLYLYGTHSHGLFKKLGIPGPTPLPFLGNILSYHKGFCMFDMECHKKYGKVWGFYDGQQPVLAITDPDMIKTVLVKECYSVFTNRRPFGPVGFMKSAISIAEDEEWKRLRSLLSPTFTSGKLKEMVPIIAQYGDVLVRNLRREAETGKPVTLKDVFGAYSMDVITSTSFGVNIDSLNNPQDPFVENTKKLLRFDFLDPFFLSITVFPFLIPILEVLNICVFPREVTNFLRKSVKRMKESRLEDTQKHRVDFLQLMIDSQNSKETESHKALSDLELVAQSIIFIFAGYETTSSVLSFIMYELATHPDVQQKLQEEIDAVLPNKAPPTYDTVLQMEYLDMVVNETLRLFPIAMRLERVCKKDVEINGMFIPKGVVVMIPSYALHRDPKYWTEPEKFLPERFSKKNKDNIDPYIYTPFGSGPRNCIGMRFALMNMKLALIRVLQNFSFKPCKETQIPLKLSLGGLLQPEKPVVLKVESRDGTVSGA
Excerpt: as §1

in vitro = assay: in vitro; set-up: Cytotoxicity in iPSC-derived pneumocytes, CC50; conditions: human, ipsc-derived pneumocytes; ASAP-0008327-001=ASAP-0011176-001; read-out: 50.0
MERS-CoV = assay type: cell-based; conditions: Vero E6/TMPRSS2 MERS-CoV antiviral effect with P-gp inhibitor

`Cc1nn(C)cc1-c1cc2c(NC(c3ccc4c(c3)S(=O)(=O)CCC4)C(C)C)ncnc2[nH]1` (centres unmarked) [ASAP-0011446] showed an EC50 [1] of 0.014 µM.

`CC(C)C(Nc1ncnc2[nH]ccc12)c1ccc2c(c1)S(=O)(=O)CCC2` (centres unmarked) [ASAP-0008327] gave a perc_activity (kinase panel; kinase ALK(h), ATP 200 uM) of 93%, a perc_activity (kinase panel; kinase AMPKα1(h), ATP 45 uM) of 94% and a perc_activity (kinase panel; kinase ASK1(h), ATP 200 uM) of 108%. For the same compound, the perc_activity (kinase panel; kinase Abl(h), ATP 45 uM) was 93%, the perc_activity (kinase panel; kinase Aurora-A(h), ATP 15 uM) was 57% and the CC50 [2] was > 50 µM.

With `CC(C)C(Nc1ncnc2[nH]c(C(=O)NC3CCN(C)C3)cc12)c1ccc2c(c1)S(=O)(=O)CCC2` (centres unmarked) [ASAP-0011198] the IC50 (CYP1A2) was > 50 µM, the IC50 (CYP2C19) was > 50 µM and the IC50 (CYP2C9) was > 50 µM. For the same compound, the IC50 (CYP2D6) was > 50 µM and the IC50 (CYP3A4) was > 50 µM.

With `CNCc1cc(-c2cc3c(N[C@@H](c4ccc5c(c4)S(=O)(=O)CCC5)C(C)C)ncnc3[nH]2)co1` [ASAP-0011176] the CC50 (in vitro) was > 50 µM.

With `Cn1ncc(-c2cc3c(N[C@@H](c4ccc5c(n4)OCCO5)C(C)(C)C)ncnc3[nH]2)c1C#N` [ASAP-0011221] the EC50 (MERS-CoV) was > 5 µM, the EC90 (MERS-CoV) was > 5 µM and the perc_max_measured (MERS-CoV; maximum measured response) was 128.492%. For the same compound, the perc_min_measured (MERS-CoV; minimum measured response) was 99.797%.
